Here are results for 10 compounds from ChEMBL document CHEMBL1201862, “PubChem BioAssay data set” (2004).

Structures are written as SMILES.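 A five-concentration, 48-hour dose response in 96-well plates underlies each endpoint, interpolated linearly between surrounding concentrations. The concentration for 50% growth inhibition is given as GI50.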 Calls of active or inactive are those of the source. Cut-off read from the data, not from the text of the source: active = GI50 up to about 1.1 µM and inactive = higher. Bounds are passed on as bounds.

Among the test systems are CAKI-1; SK-MEL-2; NCI-H522; SF-539; SNB-75; SF-295; A549; HOP-62; NCI-H23; ACHN; HT-29; OVCAR-8; SK-OV-3; SK-MEL-28; SNB-19.
What all share (test): inhibition of tumour cell growth, NCI panel, 48 h

Turning to `COC(=O)/C(C#N)=C1\CCC(Nc2cccc(C(F)(F)F)c2)N1C` (centres undefined), the GI50 is > 100 µM (inactive) in the test with CAKI-1; > 100 µM (inactive) in the test with SK-MEL-2; > 100 µM (inactive) in the test with NCI-H522; > 100 µM (inactive) with SF-539; 43.3 µM (inactive) in the test on SNB-75; > 100 µM (inactive) with SF-295. The GI50 in the test on A549 was > 100 µM (inactive); in the test on HOP-62, > 100 µM (inactive); in the test with NCI-H23, 72.1 µM (inactive); with ACHN it was 61.8 µM (inactive); with HT-29 it was > 100 µM (inactive); in the test on OVCAR-8, > 100 µM (inactive). In addition, the GI50 with SK-OV-3 was 84.3 µM (inactive); in the test with SK-MEL-28 it was > 100 µM (inactive); in the test with SNB-19, > 100 µM (inactive).
Consider `O=C(NO)C12C3C4C1C1C2C3C41C(=O)NO` (centres undefined), for which the GI50 in the test with CAKI-1, in the test with SK-MEL-2, in the test with NCI-H522, with SF-539, with SNB-75 and with SF-295 was > 100 µM (inactive) each time. Moreover, the GI50 with A549, in the test with HOP-62, in the test with ACHN, with HT-29, in the test with OVCAR-8 and in the test on SK-OV-3 was > 100 µM (inactive) each time. For the same compound, the GI50 in the test on SK-MEL-28 and in the test on SNB-19 was > 100 µM (inactive) in each case.
As to `O=C1/C(=N\O)c2ccccc2S1(=O)=O`, the GI50 in the test with CAKI-1 is 16.6 µM (inactive); with SK-MEL-2, > 100 µM (inactive); in the test on NCI-H522, 60 µM (inactive); in the test with SF-539, > 100 µM (inactive); in the test with SNB-75 it was 66.2 µM (inactive); in the test with SF-295, > 100 µM (inactive). In addition, the GI50 in the test with A549, with HOP-62, in the test with ACHN, with HT-29, in the test with OVCAR-8 and with SK-OV-3 was > 100 µM (inactive) in each case. The GI50 in the test with SNB-19 was > 100 µM (inactive).
Take `CCCCCCC(=O)OC[n+]1ccc2c(C)c3[nH]c4ccccc4c3c(C)c2c1`: the GI50 with CAKI-1 was 1.58 µM (inactive); in the test with SK-MEL-2 it was 5.38 µM (inactive); in the test with NCI-H522, 1.56 µM (inactive); in the test with SF-539, 0.646 µM (active); with SNB-75, 1.85 µM (inactive); in the test on SF-295, 0.836 µM (active). For the same compound, the GI50 with A549 was 0.474 µM (active); with HOP-62 it was 2.08 µM (inactive); in the test with NCI-H23, 0.455 µM (active); in the test on ACHN, 0.703 µM (active); with HT-29, 0.347 µM (active); with OVCAR-8, 0.34 µM (active). The GI50 is 1.83 µM (inactive) in the test on SK-OV-3 and 1.56 µM (inactive) in the test with SK-MEL-28.
With `COc1cc2c(cc1OC)-c1cc(OC)c(OC)cc1[C@H]1CN3CCC[C@@]3(O)C=C21`, the GI50 with CAKI-1, in the test with SK-MEL-2, in the test on NCI-H522, in the test with SF-539, in the test with SNB-75 and in the test with SF-295 was < 0.0001 µM (active) in each case. Moreover, the GI50 in the test with A549, in the test on HOP-62, with NCI-H23, in the test on ACHN, in the test with HT-29 and in the test on OVCAR-8 was < 0.0001 µM (active) each time. In addition, the GI50 in the test with SK-OV-3, in the test on SK-MEL-28 and in the test on SNB-19 was < 0.0001 µM (active) throughout.
As for `CSc1c([S+](C)[O-])[nH]c2cc(Br)cc(Br)c12` (centres undefined), the GI50 in the test on CAKI-1 is 25.1 µM (inactive); in the test on NCI-H522, 23.3 µM (inactive); in the test on SF-539, 22.4 µM (inactive); in the test with SNB-75, 17.3 µM (inactive); in the test with SF-295 it was 17.1 µM (inactive); with A549, 24 µM (inactive). Besides, the GI50 with NCI-H23 is 19.3 µM (inactive); in the test on ACHN, 24.5 µM (inactive); with HT-29, 26.9 µM (inactive); in the test on OVCAR-8, 22 µM (inactive); with SK-OV-3, 27.9 µM (inactive); with SK-MEL-28, 20.7 µM (inactive).
Consider `COCC1C(=O)c2cc3c(cc2C12C=CC1(C=C2)OCCO1)OCO3` (centres undefined), for which the GI50 in the test with CAKI-1 is 15.9 µM (inactive); in the test on SK-MEL-2, 11.7 µM (inactive); in the test with NCI-H522, 1.63 µM (inactive); in the test on SF-539, 15.6 µM (inactive); in the test on SNB-75, 14.9 µM (inactive); with SF-295, 14.4 µM (inactive). Also, the GI50 in the test on A549 was 15.4 µM (inactive); in the test on HOP-62, 21.6 µM (inactive); in the test on NCI-H23 it was 12.5 µM (inactive); in the test with ACHN it was 12.7 µM (inactive); in the test on HT-29, 3.94 µM (inactive); in the test with OVCAR-8, 3.58 µM (inactive). Moreover, the GI50 is 16.1 µM (inactive) with SK-OV-3 and 14.5 µM (inactive) in the test on SK-MEL-28.
For `CN1CN(C2OC(CO)C(O)C2O)c2nc(N)[nH]c(=O)c21` (centres undefined), the GI50 is > 100 µM (inactive) with CAKI-1; > 100 µM (inactive) in the test on SK-MEL-2; 5.15 µM (inactive) in the test with NCI-H522; > 100 µM (inactive) in the test on SF-539; > 100 µM (inactive) in the test on SNB-75; > 100 µM (inactive) in the test with SF-295. Also, the GI50 with A549, with HOP-62, with NCI-H23, with ACHN, with HT-29 and with OVCAR-8 was > 100 µM (inactive) throughout. In addition, the GI50 in the test with SK-OV-3 and in the test with SNB-19 was > 100 µM (inactive) throughout.
For `CCOC(=O)CC1=Nc2ccccc2SC1`, the GI50 with CAKI-1, in the test on SK-MEL-2, in the test with NCI-H522, with SF-539, in the test with SNB-75 and in the test with SF-295 was > 100 µM (inactive) each time. In addition, the GI50 in the test on A549, with HOP-62, in the test with NCI-H23, with ACHN, with HT-29 and with OVCAR-8 was > 100 µM (inactive) in each case. The GI50 was 1.29 µM (inactive) in the test with SK-MEL-28 and > 100 µM (inactive) in the test with SNB-19.
Turning to `CC(=O)Oc1ccc(O)c(O)c1C/C=C(\C)CC/C=C(\C)CC/C=C(\C)CCC=C(C)C` [TETRAPRENYLPHENOLSUILLIN], the GI50 was 2.65 µM (inactive) in the test with CAKI-1; 1.16 µM (inactive) in the test with SK-MEL-2; 1.51 µM (inactive) in the test with NCI-H522; 0.407 µM (active) in the test with SF-539; 0.439 µM (active) with SNB-75; 0.746 µM (active) in the test on SF-295. Further, the GI50 with A549 is 0.34 µM (active); in the test with HOP-62 it was 1.24 µM (inactive); in the test with NCI-H23, 0.429 µM (active); in the test with ACHN it was 0.275 µM (active); in the test with HT-29, 0.338 µM (active); in the test on OVCAR-8 it was 0.392 µM (active). The figures for the GI50 in the test with SK-MEL-28 and in the test with SNB-19 were 0.656 µM (active) and 0.424 µM (active), respectively.
